The source of these data is patent US20010039287A1, “AROMATIC SULFONE HYDROXAMIC ACID METALLOPROTEASE INHIBITOR” (priority 1997, published 2001).

What all share (experiment): biochemical
Test [1] addresses recombinant human MMP-13 (Homo sapiens, UniProt P45452).
The target in test [2] is T1, recombinant human MMP-1 (Homo sapiens, UniProt P03956).
T1 construct: made in house; host or cells: transfected HT-1080 cells (provided by Dr. Harold Welgus, Washington University)
T1 sequence (P03956 100-469): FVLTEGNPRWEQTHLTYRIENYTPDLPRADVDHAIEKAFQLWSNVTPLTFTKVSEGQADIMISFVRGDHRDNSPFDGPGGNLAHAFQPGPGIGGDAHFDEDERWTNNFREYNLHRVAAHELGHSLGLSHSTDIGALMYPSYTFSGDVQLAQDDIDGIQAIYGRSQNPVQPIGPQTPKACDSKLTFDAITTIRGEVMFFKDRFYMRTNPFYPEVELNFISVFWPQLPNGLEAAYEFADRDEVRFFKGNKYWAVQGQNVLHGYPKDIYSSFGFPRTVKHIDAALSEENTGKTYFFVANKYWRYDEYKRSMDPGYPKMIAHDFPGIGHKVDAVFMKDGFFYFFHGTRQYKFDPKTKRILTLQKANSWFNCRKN
The settings on record: read-out: MMP-1 IC50.

For test [3], the target named is T2, recombinant human MMP-2 (Homo sapiens, UniProt P08253).
T2 sequence (P08253 110-660): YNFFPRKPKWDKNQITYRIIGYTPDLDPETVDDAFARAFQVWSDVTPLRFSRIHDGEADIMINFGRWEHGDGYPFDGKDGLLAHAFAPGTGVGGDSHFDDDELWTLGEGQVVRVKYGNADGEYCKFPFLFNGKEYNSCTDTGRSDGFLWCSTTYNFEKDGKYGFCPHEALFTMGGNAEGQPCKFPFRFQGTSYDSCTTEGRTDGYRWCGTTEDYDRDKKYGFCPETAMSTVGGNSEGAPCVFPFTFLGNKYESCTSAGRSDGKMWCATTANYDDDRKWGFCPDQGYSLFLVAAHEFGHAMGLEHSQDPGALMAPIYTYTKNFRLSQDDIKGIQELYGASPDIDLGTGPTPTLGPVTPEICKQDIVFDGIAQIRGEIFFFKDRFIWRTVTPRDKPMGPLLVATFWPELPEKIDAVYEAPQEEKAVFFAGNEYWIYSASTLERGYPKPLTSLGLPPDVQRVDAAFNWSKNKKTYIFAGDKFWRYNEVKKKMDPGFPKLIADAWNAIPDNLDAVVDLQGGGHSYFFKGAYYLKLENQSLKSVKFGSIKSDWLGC
The settings on record: for pIC50: read-out: MMP-2 IC50; for IC50: MMP-2 IC50 (nM).

Where [4] appears, read: Inhibition Table A, read-out: MMP-13 IC50.
[5] abbreviates: Inhibition Table B, read-out: MMP-13 IC50.

SMILES strings stand for the structures. pIC50: −log10 of the molar value. Structures can show the parent of a compound that is named as a salt. Where two headings read alike, the source gives them in different places.

What is called pIC50 is the IC50 on a negative log10 scale, so that one unit is a factor of ten. Usually IC50 stands for the concentration needed to halve the response being measured.

Consider `CC(C)(C)OC(=O)N1CCC(C(=O)NO)(S(=O)(=O)c2ccc(Oc3ccccc3)cc2)CC1` [Example 3], for which the results for the negative-log IC50 (pIC50) in test [1] (setting [4]), in test [2] (Inhibition Table A) and in test [3] (Inhibition Table A) were 9.52, 5.94 and 9.70, respectively.

Consider `O=C(NO)/C(=C\c1ccccc1)S(=O)(=O)c1ccc(Oc2ccccc2)cc1` [Example 5], for which the results for the negative-log IC50 (pIC50) in test [1] (setting [4]), in test [2] (Inhibition Table A) and in test [3] (Inhibition Table A) were 5.32, less than 5.00 and 5.74, respectively.

`O=C(CS(=O)(=O)c1ccc(NC(=O)c2ccccc2)cc1)NO` [Example 7]: the pIC50 in test [2] (Inhibition Table A) is less than 5.00; in test [3] (Inhibition Table A), 8.74.

Consider `O=C(Nc1ccc(S(=O)(=O)C2(C(=O)NO)CCNCC2)cc1)c1ccccc1` [Example 8], for which the figures for the negative logarithm of the IC50 (pIC50) in test [1] (setting [4]) and in test [2] (Inhibition Table A) were 7.62 and less than 5.00, respectively.

`O=C(NO)C1(S(=O)(=O)c2ccc(N3CCC(c4ccccc4)CC3)cc2)CCOCC1` [Example 11]: the results for the negative logarithm of the IC50 (pIC50) in test [1] (setting [4]) and in test [2] (Inhibition Table A) were 8.22 and less than 5.00, respectively. The IC50 in test [3] was 4.4 nM.

Turning to `CN1CCC(C(=O)NO)(S(=O)(=O)c2ccc(Oc3ccccc3)cc2)CC1` [Example 14], the negative logarithm of the IC50 (pIC50) was 10.00 in test [1] (setting [4]), 6.33 in test [2] (Inhibition Table A) and more than 10.00 in test [3] (Inhibition Table A).

As for `CS(=O)(=O)N1CCC(C(=O)NO)(S(=O)(=O)c2ccc(Oc3ccccc3)cc2)CC1` [Example 18], the results for the negative logarithm of the IC50 (pIC50) in test [1] and in test [2] (Inhibition Table A) were 9.30 and 6.10, respectively. Besides, in test [3], the IC50 came to 0.3 nM.

As for `O=C(NO)C1(S(=O)(=O)c2ccc(SC3CCCCC3)cc2)CCNCC1` [Example 19], the results for the pIC50 in test [1] (setting [4]), in test [2] (Inhibition Table A) and in test [3] (Inhibition Table A) were 8.05, less than 5.00 and 7.86, respectively.

With `O=C(NO)C1(S(=O)(=O)c2ccc(N3CCN(c4ccccc4)CC3)cc2)CCOCC1` [Example 20], the pIC50 in test [1] (setting [4]) was 8.77; in test [2] (Inhibition Table A), 5.00. In test [3], the half-inhibitory concentration (IC50) was found to be 23.5 nM.

As for `O=C(NO)C1(S(=O)(=O)c2ccc(Sc3ccc(F)cc3)cc2)CCNCC1` [Example 22], the pIC50 was 8.92 in test [1] (setting [4]), less than 5.00 in test [2] (Inhibition Table A) and 9.05 in test [3] (Inhibition Table A).

On to `C#CCN1CCC(C(=O)NO)(S(=O)(=O)c2ccc(Oc3ccc(-n4ccnc4)cc3)cc2)CC1` [Example 23], for which the pIC50 is 9.70 in test [1] (setting [4]), 5.64 in test [2] (Inhibition Table A) and more than 10.00 in test [3] (Inhibition Table A).

In the case of `O=C(NO)C1(S(=O)(=O)c2ccc(Sc3ccc(Cl)cc3)cc2)CCOCC1` [Example 25], the pIC50 was 8.52 in test [1] (setting [4]), less than 5.00 in test [2] (Inhibition Table A) and 8.59 in test [3] (Inhibition Table A).

`C=CCN1CCC(C(=O)NO)(S(=O)(=O)c2ccc(Sc3ccccc3)cc2)CC1` [Example 28]: the negative logarithm of the IC50 (pIC50) was more than 10.00 in test [1] (setting [4]), 6.11 in test [2] (Inhibition Table A) and more than 10.00 in test [3] (Inhibition Table A).

Regarding `O=C(NO)C1(S(=O)(=O)c2ccc(Oc3ccccc3)cc2)CCN(CC2CC2)CC1` [Example 29], the pIC50 is 9.52 in test [1], less than 5.00 in test [2] (Inhibition Table A) and 9.82 in test [3] (Inhibition Table A).

Consider `O=C(CN1CCCC1)N1CCC(C(=O)NO)(S(=O)(=O)c2ccc(Oc3ccccc3)cc2)CC1` [Example 31, N-hydroxy-4-[(4-phenoxyphenyl)sulfonyl]-1-(1-pyrrolidinylacetyl)-4-piperidine Carboxamide, Monohydrochloride], for which the negative logarithm of the IC50 (pIC50) in test [1] (setting [5]) was 9.70; in test [2] (Inhibition Table B), 6.43; in test [3] (Inhibition Table B), more than 10.00.

Regarding `CC(C)N1CCC(C(=O)NO)(S(=O)(=O)c2ccc(Sc3ccccc3)cc2)CC1` [Example 34, N-hydroxy-1-(1-methylethyl)-4-[[4-(phenylthio)phenyl]sulfonyl]-4-piperidinecarboxamide, Monohydrochloride], the pIC50 in test [1] (setting [5]) is 8.92; in test [2], less than 5.00; in test [3] (Inhibition Table B), 8.96.

As for `CC(=O)N1CCC(C(=O)NO)(S(=O)(=O)c2ccc(Oc3ccc4c(c3)OCO4)cc2)CC1` [Example 37, 1-acetyl-4-[[4-(1,3-benzodioxol-5-yloxy)phenyl]sulfonyl]-N-hydroxy-4-piperidinecarboxamide, Monohydrochloride], the negative-log IC50 (pIC50) in test [1] (setting [5]) was 9.52; in test [2] (Inhibition Table B) it was 6.00; in test [3] (Inhibition Table B) it was 9.70.

`C#CCN1CCC(C(=O)NO)(S(=O)(=O)c2ccc(Oc3cc(OC)cc(OC)c3)cc2)CC1` [Example 39, 4-[[4-(3,5-dimethoxyphenoxy)phenyl]sulfonyl]-N-hydroxy-1-(2-propynyl)-4-piperidinecarboxamide, Monohydrochloride]: the negative logarithm of the IC50 (pIC50) was 7.61 in test [1] (setting [5]), less than 5.00 in test [2] (Inhibition Table B) and 6.64 in test [3] (Inhibition Table B).

For the compound `C#CCN1CCC(C(=O)NO)(S(=O)(=O)c2ccc(Oc3cccc(C)c3)cc2)CC1` [Example 41, N-hydroxy-4-[[4-(3-methylphenoxy)phenyl]sulfonyl]-1-(2-propynyl)-4-piperidinecarboxamide, Monohydrochloride], the pIC50 in test [1] (setting [5]) is 9.70; in test [2] (Inhibition Table B), 5.92; in test [3] (Inhibition Table B), 9.82.

For the compound `C#CCN1CCC(C(=O)NO)(S(=O)(=O)c2ccc(SC3CCCC3)cc2)CC1` [Example 45, 4-[[4-(Cyclopentylthio)-phenyl]sulfonyl]-N-hydroxy-1-(2-propynyl)-4-piperidinecarboxamide, Monohydrochloride], the values for the negative logarithm of the IC50 (pIC50) in test [1] (setting [5]), in test [2] (Inhibition Table B) and in test [3] (Inhibition Table B) were 8.77, 5.06 and 8.60, respectively.

Regarding `CC1(C)OCC(C(=O)NO)(S(=O)(=O)c2ccc(Oc3ccccc3)cc2)CO1` [Example 48], the values for the pIC50 in test [1] (setting [5]), in test [2] (Inhibition Table B) and in test [3] (Inhibition Table B) were 9.60, 6.68 and 9.70, respectively.

For the compound `O=C(NO)C1(S(=O)(=O)c2ccc(Sc3ccccc3)cc2)CCSCC1` [Example 49, tetrahydro-N-hydroxy-4-[[4-(phenylthio)phenyl]sulfonyl]-2H-thiopyran-4-carboxamide], the negative logarithm of the IC50 (pIC50) in test [1] (setting [5]) was 7.05; in test [2] (Inhibition Table B), less than 5.00; in test [3] (Inhibition Table B), 7.11.

Regarding `COc1ccc(Sc2ccc(S(=O)(=O)C3(C(=O)NO)CCSCC3)cc2)cc1` [Example 51, Tetrahydro-N-hydroxy-4-[[4-[(4-methoxypheny)thio]phenyl]sulfonyl]-2H-thiopyran-4-carboxamide], the pIC50 was 8.89 in test [1] (setting [5]), 5.26 in test [2] (Inhibition Table B) and 9.15 in test [3] (Inhibition Table B).

On to `O=C(NO)C1(S(=O)(=O)c2ccc(Sc3ccccc3)cc2)CCS(=O)(=O)CC1` [Example 52], for which the negative logarithm of the IC50 (pIC50) is 8.23 in test [1] (setting [5]), less than 5.00 in test [2] (Inhibition Table B) and 8.57 in test [3] (Inhibition Table B).

Consider `CNC(=O)C1CCCN(c2ccc(S(=O)(=O)C3(C(=O)NO)CCOCC3)cc2)C1` (centres unmarked) [Example 139], for which the pIC50 in test [3] (Inhibition Table B) is 6.00.

On to `O=C(C1CCCN(c2ccc(S(=O)(=O)C3(C(=O)NO)CCOCC3)cc2)C1)N1CCOCC1` (centres unmarked) [Example 140], for which the negative logarithm of the IC50 (pIC50) in test [3] (Inhibition Table B) was 6.00.

As to `C[C@@H]1CN(C(=O)C2CCCN(c3ccc(S(=O)(=O)C4(C(=O)NO)CCOCC4)cc3)C2)C[C@H](C)O1` (some centres unmarked) [Example 169], the negative logarithm of the IC50 (pIC50) in test [2] (Inhibition Table B) is 5.00.

With `O=C(C1CCCN(c2ccc(S(=O)(=O)C3(C(=O)NO)CCOCC3)cc2)C1)N1CCCC2CCCCC21` (centres unmarked) [Example 170], in test [2] (Inhibition Table B), the pIC50 was 5.00.

`N[C@H]1CCN(C(=O)C2CCN(c3ccc(S(=O)(=O)C4(C(=O)NO)CCOCC4)cc3)CC2)C1` [Example 175]: the pIC50 in test [2] (Inhibition Table B) is 5.00.

Regarding `C[C@@H]1CN(C(=O)C2CCN(c3ccc(S(=O)(=O)C4(C(=O)NO)CCOCC4)cc3)CC2)C[C@H](C)O1` [Example 176], in test [2] (Inhibition Table B), the pIC50 is less than 5.00.

Consider `O=C(C1CCN(c2ccc(S(=O)(=O)C3(C(=O)NO)CCOCC3)cc2)CC1)N1CCCC1` [Example 179], for which the negative-log IC50 (pIC50) in test [1] (setting [5]) is 7.00.

Consider `CCCCNC(=O)C1CCN(c2ccc(S(=O)(=O)C3(C(=O)NO)CCOCC3)cc2)CC1` [Example 181], for which the negative logarithm of the IC50 (pIC50) in test [2] (Inhibition Table B) was 5.00.

Regarding `O=C(NC1CCCCCC1)C1CCN(c2ccc(S(=O)(=O)C3(C(=O)NO)CCOCC3)cc2)CC1` [Example 194], in test [2] (Inhibition Table B), the pIC50 was 5.00.

Regarding `O=C(NCc1ccncc1)C1CCN(c2ccc(S(=O)(=O)C3(C(=O)NO)CCOCC3)cc2)CC1` [Example 195], the values for the pIC50 in test [2] (Inhibition Table B) and in test [3] (Inhibition Table B) were 5.00 and 7.00, respectively.

For `COCCN1CCC(C(N)=O)(S(=O)(=O)c2ccc(Oc3ccc(OC(F)(F)F)cc3)cc2)CC1` [Example 444, 1-(2-methoxyethyl)-4-[[4-[4-(trifluoromethoxy)phenoxy]phenyl]sulfonyl]-4-piperidinecarboxamide], the pIC50 in test [2] was less than 5.00.

For `C#CCN1CCC(C(N)=O)(S(=O)(=O)c2ccc(Sc3ccccc3)cc2)CC1` [Example 445, 4-[(4-phenylthiophenyl)sulfonyl]-1-(2—propynyl)-4-piperidinecarboxamide], the negative logarithm of the IC50 (pIC50) in test [2] (Inhibition Table B) was less than 5.00.
